# Laboratory results taken from patent publication US20140005163A1 (NOVARTIS AG, priority 2010, published 2014).
# How the values were obtained:
# [1] = Solubility at pH 6.8; assay type: physicochemical; conditions: pH 6.8, aqueous buffer, thermodynamic from solid; read-out: solubility
# Summary of the method: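 Following the procedure of Zhou et al. (2007), compound solubility was determined at pH 6.8.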
# [2] = tested on: PKB Ser473 phosphorylation in Rat1-myr-HA-p110 delta cells; test: Reverse protein array assay, PKB Ser473 phosphorylation in Rat1-myr-p110 delta cells; assay type: cell-based; conditions: read-out: p-PKB IC50
# Summary of the method: (§1)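 Compound exposure lasted 30 min in Rat1 cells bearing membrane-targeted HA-p110 isoforms, using 8 serial concentrations. Arrayed lysates, each spotted at four dilutions, gave relative fluorescence signals for phospho-Ser473 PKB.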
# [3] = biological target: T1, PI3K delta (Homo sapiens, UniProt O00329); test: PI3K delta kinase assay (Kinase-Glo luminescence); assay type: biochemical
# T1 construct: for the full-length p110-d subunit are generated and fused by overlapping PCR; p85(iSH2) fusion partner (see partner chain) (N); His tag (C); made in house; host or cells: baculovirus; Tn5 (Trichoplusia ni) or TiniPro insect cells
# T1 sequence (O00329 with tags, fused parts or gaps limits assumed): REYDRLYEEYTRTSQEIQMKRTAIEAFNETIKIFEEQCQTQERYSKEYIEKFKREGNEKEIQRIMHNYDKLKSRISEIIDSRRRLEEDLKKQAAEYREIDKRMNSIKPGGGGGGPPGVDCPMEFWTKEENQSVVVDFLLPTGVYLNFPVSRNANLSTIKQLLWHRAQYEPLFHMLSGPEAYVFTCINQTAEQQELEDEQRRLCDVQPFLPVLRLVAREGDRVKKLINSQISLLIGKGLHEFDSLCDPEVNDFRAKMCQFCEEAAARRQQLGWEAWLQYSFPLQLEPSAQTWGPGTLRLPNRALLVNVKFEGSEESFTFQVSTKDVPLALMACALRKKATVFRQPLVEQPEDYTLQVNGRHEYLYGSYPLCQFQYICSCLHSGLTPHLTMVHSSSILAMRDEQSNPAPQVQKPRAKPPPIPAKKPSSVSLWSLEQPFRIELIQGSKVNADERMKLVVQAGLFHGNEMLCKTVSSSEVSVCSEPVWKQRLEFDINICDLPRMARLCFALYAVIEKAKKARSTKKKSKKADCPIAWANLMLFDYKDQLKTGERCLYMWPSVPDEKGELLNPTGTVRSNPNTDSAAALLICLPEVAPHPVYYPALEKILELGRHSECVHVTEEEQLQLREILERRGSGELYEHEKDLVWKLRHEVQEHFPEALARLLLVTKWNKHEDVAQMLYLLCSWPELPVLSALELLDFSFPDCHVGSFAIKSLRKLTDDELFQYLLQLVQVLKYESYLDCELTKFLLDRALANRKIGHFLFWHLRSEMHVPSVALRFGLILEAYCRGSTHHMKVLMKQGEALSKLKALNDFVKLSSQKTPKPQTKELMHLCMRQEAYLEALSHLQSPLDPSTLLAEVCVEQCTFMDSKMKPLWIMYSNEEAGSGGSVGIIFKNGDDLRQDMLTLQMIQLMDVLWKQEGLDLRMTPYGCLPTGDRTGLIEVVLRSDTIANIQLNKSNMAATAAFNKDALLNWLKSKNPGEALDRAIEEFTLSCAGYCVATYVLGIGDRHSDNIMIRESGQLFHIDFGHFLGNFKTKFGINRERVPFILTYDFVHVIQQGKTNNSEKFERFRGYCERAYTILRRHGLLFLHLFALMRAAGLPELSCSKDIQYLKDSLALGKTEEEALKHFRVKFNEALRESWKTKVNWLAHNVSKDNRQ
# Summary of the method: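 ATP depletion was measured by Kinase-Glo luminescence after a 60-minute room-temperature reaction containing 1 μM ATP, 10 μg/mL PI and 10 nM His-tagged p85(iSH2)-linker-p110δ (BV-1060). Buffer: Tris pH 7.5, 3 mM MgCl2, 50 mM NaCl, 0.05% CHAPS, 1 mM DTT. IC50 values came from four-parameter fits over eight concentrations.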
# [4] = tested on: PKB Ser473 phosphorylation in Rat1-myr-HA-p110 alpha cells; test: Reverse protein array assay, PKB Ser473 phosphorylation in Rat1-myr-p110 alpha cells; assay type: cell-based; conditions: 0.5 h, pAkt Ser473, 30 minutes compound incubation, read-out: p-PKB IC50
# Summary of the method: as §1
# [5] = tested on: PKB Ser473 phosphorylation in Rat1-myr-HA-p110 beta cells; test: Reverse protein array assay, PKB Ser473 phosphorylation in Rat1-myr-p110 beta cells; assay type: cell-based; conditions: 0.5 h, pAkt Ser473, 30 minutes incubation, read-out: p-PKB IC50
# Summary of the method: as §1
SMILES,solubility [1],IC50 [2],IC50 [3],IC50 [4],IC50 [5]
"COc1ncc(-c2ccc3ncc4c(c3c2)n(-c2cn(C)nc2C)c(=O)n4C)cc1N [Example 127, 8-(5-Amino-6-methoxy-pyridin-3-yl)-1-(1,3-dimethyl-1H-pyrazol-4-yl)-3-methyl-1,3-dihydro-imidazo[4,5-c]quinolin-2-one]",386 µg/mL,18 nM,9 nM,5 nM,9 nM
"Cc1nn(C)cc1-n1c(=O)n(C)c2cnc3ccc(-c4cnc5ccn(C)c5c4)cc3c21 [Example 129, 1-(1,3-Dimethyl-1H-pyrazol-4-yl)-3-methyl-8-(1-methyl-1H-pyrrolo[3,2-b]pyridin-6-yl)-1,3-dihydro-imidazo[4,5-c]quinolin-2-one]",21 µg/mL,46 nM,9 nM,21 nM,16 nM
"CNc1ncc(-c2ccc3ncc4c(c3c2)n(-c2cn(C(C)C)nc2C)c(=O)n4C)cc1F [Example 141.3, 8-(5-Fluoro-6-methylamino-pyridin-3-yl)-1-(1-isopropyl-3-methyl-1H-pyrazol-4-yl)-3-methyl-1,3-dihydro-imidazo[4,5-c]quinolin-2-one]",5 µg/mL,35 nM,9 nM,10 nM,13 nM
"Cc1nn(C(C)C)cc1-n1c(=O)n(C)c2cnc3ccc(-c4cnc(N)c(F)c4)cc3c21 [Example 142.3, 8-(6-Amino-5-fluoro-pyridin-3-yl)-1-(1-isopropyl-3-methyl-1H-pyrazol-4-yl)-3-methyl-1,3-dihydro-imidazo[4,5-c]quinolin-2-one]",5 µg/mL,23 nM,18 nM,10 nM,19 nM
"CNc1ncc(-c2ccc3ncc4c(c3c2)n(-c2c(C)nn(C)c2C)c(=O)n4C)cc1C(F)(F)F [Example 144.1, 3-Methyl-8-(6-methylamino-5-trifluoromethyl-pyridin-3-yl)-1-(1,3,5-trimethyl-1H-pyrazol-4-yl)-1,3-dihydro-imidazo[4,5-c]quinolin-2-one]",> 481 µg/mL,84 nM,13 nM,26 nM,49 nM
"Cc1nn(C)c(C)c1-n1c(=O)n(C)c2cnc3ccc(-c4cnc(N)c(Cl)c4)cc3c21 [Example 148.1, 8-(6-Amino-5-chloro-pyridin-3-yl)-3-methyl-1-(1,3,5-trimethyl-1H-pyrazol-4-yl)-1,3-dihydro-imidazo[4,5-c]quinolin-2-one]",92 µg/mL,90 nM,21 nM,63 nM,139 nM
"Cc1nn(C)cc1-n1c(=O)n(C)c2cnc3ccc(-c4cnc(N)c(Cl)c4)cc3c21 [Example 148.2, 8-(6-Amino-5-chloro-pyridin-3-yl)-1-(1,3-dimethyl-1H-pyrazol-4-yl)-3-methyl-1,3-dihydro-imidazo[4,5-c]quinolin-2-one]",4 µg/mL,12 nM,39 nM,< 5 nM,6 nM
"CCNc1cc(-c2ccc3ncc4c(c3c2)n(-c2cn(C)nc2C)c(=O)n4C)cnc1CO [Example 155.1, 1-(1,3-Dimethyl-1H-pyrazol-4-yl)-8-(5-ethylamino-6-hydroxymethyl-pyridin-3-yl)-3-methyl-1,3-dihydro-imidazo[4,5-c]quinolin-2-one]",73 µg/mL,19 nM,14 nM,13 nM,22 nM
"CCNc1cc(-c2ccc3ncc4c(c3c2)n(-c2cn(CC)nc2C)c(=O)n4C)cnc1CO [Example 155.2, 8-(5-Ethylamino-6-hydroxymethyl-pyridin-3-yl)-1-(1-ethyl-3-methyl-1H-pyrazol-4-yl)-3-methyl-1,3-dihydro-imidazo[4,5-c]quinolin-2-one]",> 458 µg/mL,13 nM,22 nM,5 nM,7 nM
"CNc1cc(-c2ccc3ncc4c(c3c2)n(-c2cn(C(C)C)nc2C)c(=O)n4C)cnc1CO [Example 158.2, 8-(6-Hydroxymethyl-5-methylamino-pyridin-3-yl)-1-(1-isopropyl-3-methyl-1H-pyrazol-4-yl)-3-methyl-1,3-dihydro-imidazo[4,5-c]quinolin-2-one]",> 458 µg/mL,15 nM,8 nM,7 nM,6 nM
"CNc1cc(-c2ccc3ncc4c(c3c2)n(-c2cn(C)nc2Cl)c(=O)n4C)cnc1CO [Example 158.3, 1-(3-Chloro-1-methyl-1H-pyrazol-4-yl)-8-(6-hydroxymethyl-5-methylamino-pyridin-3-yl)-3-methyl-1,3-dihydro-imidazo[4,5-c]quinolin-2-one]",3 µg/mL,< 5 nM,4 nM,< 5 nM,< 5 nM
"CNc1cc(-c2ccc3ncc4c(c3c2)n(-c2cn(C)nc2C)c(=O)n4C)cnc1C [Example 163, 1-(1,3-Dimethyl-1H-pyrazol-4-yl)-3-methyl-8-(6-methyl-5-methylamino-pyridin-3-yl)-1,3-dihydro-imidazo[4,5-c]quinolin-2-one]",24 µg/mL,12 nM,5 nM,< 5 nM,< 5 nM
"CCN(C)c1cc(-c2ccc3ncc4c(c3c2)n(-c2cn(C)nc2C)c(=O)n4C)cnc1C [Example 165, 1-(1,3-Dimethyl-1H-pyrazol-4-yl)-8-[5-(ethyl-methyl-amino)-6-methyl-pyridin-3-yl]-3-methyl-1,3-dihydro-imidazo[4,5-c]quinolin-2-one]",> 442 µg/mL,8 nM,4 nM,6 nM,11 nM
"Cc1nn(C(C)C)cc1-n1c(=O)n(C)c2cnc3ccc(-c4cnc(N)c(CO)c4)cc3c21 [Example 169.1, 8-(6-Amino-5-hydroxymethyl-pyridin-3-yl)-1-(1-isopropyl-3-methyl-1H-pyrazol-4-yl)-3-methyl-1,3-dihydro-imidazo[4,5-c]quinolin-2-one]",289 µg/mL,70 nM,22 nM,27 nM,37 nM
"Cc1nn(C)c(C)c1-n1c(=O)n(C)c2cnc3ccc(-c4cnc(N)c(CO)c4)cc3c21 [Example 169.2, 8-(6-Amino-5-hydroxymethyl-pyridin-3-yl)-3-methyl-1-(1,3,5-trimethyl-1H-pyrazol-4-yl)-1,3-dihydro-imidazo[4,5-c]quinolin-2-one]",> 429 µg/mL,869 nM,27 nM,460 nM,586 nM
"Cc1nn(C)cc1-n1c(=O)n(C)c2cnc3ccc(-c4cncc(NC5CCC5)c4)cc3c21 [Example 172, 8-(5-Cyclobutylamino-pyridin-3-yl)-1-(1,3-dimethyl-1H-pyrazol-4-yl)-3-methyl-1,3-dihydro-imidazo[4,5-c]quinolin-2-one]",11 µg/mL,15 nM,33 nM,9 nM,13 nM
"Cc1nn(C)cc1-n1c(=O)n(C)c2cnc3ccc(-c4cncc(N(C)C(C)C)c4)cc3c21 [Example 173, 1-(1,3-Dimethyl-1H-pyrazol-4-yl)-8-[5-(isopropyl-methyl-amino)-pyridin-3-yl]-3-methyl-1,3-dihydro-imidazo[4,5-c]quinolin-2-one]",8 µg/mL,50 nM,37 nM,16 nM,29 nM
"Cc1nn(C)cc1-n1c(=O)n(C)c2cnc3ccc(-c4cncc(N5CCOCC5)c4)cc3c21 [Example 175.1, 1-(1,3-Dimethyl-1H-pyrazol-4-yl)-3-methyl-8-(5-morpholin-4-yl-pyridin-3-yl)-1,3-dihydro-imidazo[4,5-c]quinolin-2-one]",35 µg/mL,90 nM,70 nM,17 nM,37 nM
"Cc1nn(C)cc1-n1c(=O)n(C)c2cnc3ccc(-c4cncc(N(C)C)c4)cc3c21 [Example 178, 8-(5-Dimethylamino-pyridin-3-yl)-1-(1,3-dimethyl-1H-pyrazol-4-yl)-3-methyl-1,3-dihydro-imidazo[4,5-c]quinolin-2-one]",25 µg/mL,85 nM,85 nM,20 nM,49 nM
"Cc1nn(C)cc1-n1c(=O)n(C)c2cnc3ccc(-c4cncc(N5CCC5)c4)cc3c21 [Example 179, 8-(5-Azetidin-1-yl-pyridin-3-yl)-1-(1,3-dimethyl-1H-pyrazol-4-yl)-3-methyl-1,3-dihydro-imidazo[4,5-c]quinolin-2-one]",28 µg/mL,25 nM,87 nM,18 nM,21 nM
"CNc1cncc(-c2ccc3ncc4c(c3c2)n(-c2cn(C(C)C)nc2C)c(=O)n4C)c1 [Example 180.2, 1-(1-Isopropyl-3-methyl-1H-pyrazol-4-yl)-3-methyl-8-(5-methylamino-pyridin-3-yl)-1,3-dihydro-imidazo[4,5-c]quinolin-2-one]",10 µg/mL,24 nM,6 nM,< 5 nM,32 nM
